Data reported in ChEMBL document CHEMBL3862033 (J Med Chem, 2016).

Target: 5-hydroxytryptamine receptor 7 (Homo sapiens) (UniProt P34969)
Assay: Displacement of [3H]LSD from human 5-HT7A receptor expressed in HEK cell membranes at 10 uM incubated for 90 mins under dark condition by microbeta scintillation counting method relative to control
Conditions: HEK293

Sequence of 5-hydroxytryptamine receptor 7 (Homo sapiens) (P34969 whole entry): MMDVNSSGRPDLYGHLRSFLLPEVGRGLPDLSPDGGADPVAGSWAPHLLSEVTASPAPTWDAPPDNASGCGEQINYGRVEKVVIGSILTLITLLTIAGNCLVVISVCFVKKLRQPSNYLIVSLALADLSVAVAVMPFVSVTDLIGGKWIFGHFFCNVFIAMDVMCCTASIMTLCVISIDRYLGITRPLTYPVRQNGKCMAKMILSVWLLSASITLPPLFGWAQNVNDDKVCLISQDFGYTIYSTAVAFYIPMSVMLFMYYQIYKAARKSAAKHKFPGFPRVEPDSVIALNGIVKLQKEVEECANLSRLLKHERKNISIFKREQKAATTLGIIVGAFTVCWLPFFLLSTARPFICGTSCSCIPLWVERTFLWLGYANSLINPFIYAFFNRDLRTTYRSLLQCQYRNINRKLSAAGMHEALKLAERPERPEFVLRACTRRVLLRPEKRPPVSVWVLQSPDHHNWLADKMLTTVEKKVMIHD

Row | SMILES | inhibition
1 | O[C@@H]1[C@H](O)[C@@H]2C[C@@H]2[C@H]1n1cnc2c(NCc3cccc(Cl)c3)nc(Cl)nc21 | < 50%

Target: T1, 5-hydroxytryptamine receptor 2A (Homo sapiens, UniProt P28223)
T1 sequence (P28223 whole entry): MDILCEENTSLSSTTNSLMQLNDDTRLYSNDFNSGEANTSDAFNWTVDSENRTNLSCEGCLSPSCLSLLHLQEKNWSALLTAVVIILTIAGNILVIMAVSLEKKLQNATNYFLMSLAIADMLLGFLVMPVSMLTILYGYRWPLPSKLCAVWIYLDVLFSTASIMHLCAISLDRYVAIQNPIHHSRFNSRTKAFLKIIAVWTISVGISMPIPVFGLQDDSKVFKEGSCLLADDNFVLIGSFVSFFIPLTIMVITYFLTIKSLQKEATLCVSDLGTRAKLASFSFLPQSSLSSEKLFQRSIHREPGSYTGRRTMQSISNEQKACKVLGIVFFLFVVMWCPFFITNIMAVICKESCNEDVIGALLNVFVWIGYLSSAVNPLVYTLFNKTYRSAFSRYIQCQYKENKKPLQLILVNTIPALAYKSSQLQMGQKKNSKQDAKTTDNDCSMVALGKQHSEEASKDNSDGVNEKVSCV
Assay: Displacement of [3H]ketanserin from human 5-HT2A receptor expressed in HEK-T cell membranes incubated for 90 mins under dark condition by microbeta scintillation counting method
Conditions: not given

Row | SMILES | Ki
2 | O[C@@H]1[C@H](O)[C@@H]2C[C@@H]2[C@H]1n1cnc2c(NCc3cccc(Cl)c3)nc(Cl)nc21 | > 10 µM

Target: Adenosine receptor A2a (Homo sapiens, UniProt P29274)
Sequence (P29274 whole entry): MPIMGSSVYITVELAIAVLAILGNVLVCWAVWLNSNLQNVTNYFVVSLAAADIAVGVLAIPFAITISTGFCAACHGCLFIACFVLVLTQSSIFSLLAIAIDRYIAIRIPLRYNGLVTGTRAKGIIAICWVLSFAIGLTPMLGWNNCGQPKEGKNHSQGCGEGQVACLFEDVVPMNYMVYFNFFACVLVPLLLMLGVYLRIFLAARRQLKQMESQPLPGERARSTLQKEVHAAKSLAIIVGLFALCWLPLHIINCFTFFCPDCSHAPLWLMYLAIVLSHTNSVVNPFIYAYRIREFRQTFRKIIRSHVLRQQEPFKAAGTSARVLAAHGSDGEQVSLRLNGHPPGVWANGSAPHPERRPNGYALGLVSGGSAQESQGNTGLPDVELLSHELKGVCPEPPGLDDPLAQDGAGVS
Assay: Displacement of [3 H]2-[p-(2-carboxyethyl)phenyl-ethylamino]-5'-N-ethylcarboxamidoadenosine from recombinant human adenosine receptor A2A expressed in HEK293 cell membranes at 10 uM after 60 mins by liquid scintillation counting method relative to control
Conditions: not given

Row | SMILES | inhibition
3 | O[C@@H]1[C@H](O)[C@@H]2C[C@@H]2[C@H]1n1cnc2c(NCc3cccc(Cl)c3)nc(Cl)nc21 | > 50%

Target: 5-hydroxytryptamine receptor 1B (Homo sapiens) (UniProt P28222)
Sequence (P28222 whole entry): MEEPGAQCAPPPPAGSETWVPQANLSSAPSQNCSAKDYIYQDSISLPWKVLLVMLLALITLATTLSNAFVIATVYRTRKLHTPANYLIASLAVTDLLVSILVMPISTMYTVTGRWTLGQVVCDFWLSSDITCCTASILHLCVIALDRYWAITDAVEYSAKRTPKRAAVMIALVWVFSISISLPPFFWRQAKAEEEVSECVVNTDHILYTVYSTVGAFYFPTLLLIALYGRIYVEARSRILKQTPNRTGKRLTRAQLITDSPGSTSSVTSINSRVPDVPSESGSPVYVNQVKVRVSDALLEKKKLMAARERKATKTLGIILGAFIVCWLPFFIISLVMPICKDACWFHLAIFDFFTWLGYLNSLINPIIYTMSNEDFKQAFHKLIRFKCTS
Assay: Displacement of [3H]5-CT from human 5-HT1BR expressed in HEK cell membranes at 10 uM incubated for 90 mins under dark condition by microbeta scintillation counting method relative to control
Conditions: HEK293

Row | SMILES | inhibition
4 | O[C@@H]1[C@H](O)[C@@H]2C[C@@H]2[C@H]1n1cnc2c(NCc3cccc(Cl)c3)nc(Cl)nc21 | < 50%

Target: 5-hydroxytryptamine receptor 6 (Homo sapiens) (UniProt P50406)
Sequence (P50406 whole entry): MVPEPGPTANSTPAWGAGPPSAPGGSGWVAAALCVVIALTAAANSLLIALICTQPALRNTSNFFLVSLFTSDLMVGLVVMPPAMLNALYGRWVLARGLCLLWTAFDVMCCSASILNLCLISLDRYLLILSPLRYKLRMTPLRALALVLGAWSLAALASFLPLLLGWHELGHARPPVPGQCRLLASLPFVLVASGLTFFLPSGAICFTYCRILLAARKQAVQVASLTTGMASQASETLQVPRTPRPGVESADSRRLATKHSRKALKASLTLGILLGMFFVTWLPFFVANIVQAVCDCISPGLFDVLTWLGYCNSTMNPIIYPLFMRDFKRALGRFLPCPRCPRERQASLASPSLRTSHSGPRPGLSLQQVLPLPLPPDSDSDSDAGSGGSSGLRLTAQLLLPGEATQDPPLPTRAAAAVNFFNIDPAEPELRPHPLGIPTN
Assay: Displacement of [3H]LSD from human 5-HT6 receptor expressed in HEK cell membranes at 10 uM incubated for 90 mins under dark condition by microbeta scintillation counting method relative to control
Conditions: HEK293

Row | SMILES | inhibition
5 | O[C@@H]1[C@H](O)[C@@H]2C[C@@H]2[C@H]1n1cnc2c(NCc3cccc(Cl)c3)nc(Cl)nc21 | < 50%

Target: T2, 5-hydroxytryptamine receptor 2B (Homo sapiens, UniProt P41595)
T2 sequence (P41595 whole entry): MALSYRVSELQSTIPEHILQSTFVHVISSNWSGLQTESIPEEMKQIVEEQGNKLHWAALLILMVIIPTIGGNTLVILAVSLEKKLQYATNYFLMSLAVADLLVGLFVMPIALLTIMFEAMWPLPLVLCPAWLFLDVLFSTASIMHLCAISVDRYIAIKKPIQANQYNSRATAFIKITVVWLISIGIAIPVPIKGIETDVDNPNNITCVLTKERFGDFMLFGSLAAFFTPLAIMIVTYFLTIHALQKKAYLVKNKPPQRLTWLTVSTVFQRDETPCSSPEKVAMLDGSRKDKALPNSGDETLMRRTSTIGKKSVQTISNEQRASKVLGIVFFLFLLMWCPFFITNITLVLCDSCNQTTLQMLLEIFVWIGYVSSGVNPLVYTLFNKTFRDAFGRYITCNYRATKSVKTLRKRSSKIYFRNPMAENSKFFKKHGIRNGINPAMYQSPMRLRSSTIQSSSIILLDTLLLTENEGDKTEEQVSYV
Assay: biochemical
Assay type: cell-based, HEK293
Conditions: not given

Row | SMILES | Ki
6 | O[C@@H]1[C@H](O)[C@@H]2C[C@@H]2[C@H]1n1cnc2c(NCc3cccc(Cl)c3)nc(Cl)nc21 | 2.39 µM

Target: 5-hydroxytryptamine receptor 1D (Homo sapiens) (UniProt P28221)
Sequence (P28221 whole entry): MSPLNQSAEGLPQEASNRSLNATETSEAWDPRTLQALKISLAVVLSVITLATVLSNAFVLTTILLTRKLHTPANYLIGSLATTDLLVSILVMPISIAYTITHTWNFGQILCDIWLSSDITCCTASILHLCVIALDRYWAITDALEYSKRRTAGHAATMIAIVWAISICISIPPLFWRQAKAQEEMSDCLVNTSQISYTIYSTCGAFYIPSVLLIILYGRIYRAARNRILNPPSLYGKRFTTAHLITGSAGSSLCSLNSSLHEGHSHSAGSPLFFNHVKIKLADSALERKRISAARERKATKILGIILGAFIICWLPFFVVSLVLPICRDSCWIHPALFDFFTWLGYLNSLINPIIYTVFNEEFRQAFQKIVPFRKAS
Assay: Displacement of [3H]5-CT from human 5-HT1D receptor expressed in HEK-T cell membranes at 10 uM incubated for 90 mins under dark condition by microbeta scintillation counting method relative to control
Conditions: not given

Row | SMILES | inhibition
7 | O[C@@H]1[C@H](O)[C@@H]2C[C@@H]2[C@H]1n1cnc2c(NCc3cccc(Cl)c3)nc(Cl)nc21 | < 50%

Target: 5-hydroxytryptamine receptor 4 (Homo sapiens) (UniProt Q13639)
Sequence (Q13639 whole entry): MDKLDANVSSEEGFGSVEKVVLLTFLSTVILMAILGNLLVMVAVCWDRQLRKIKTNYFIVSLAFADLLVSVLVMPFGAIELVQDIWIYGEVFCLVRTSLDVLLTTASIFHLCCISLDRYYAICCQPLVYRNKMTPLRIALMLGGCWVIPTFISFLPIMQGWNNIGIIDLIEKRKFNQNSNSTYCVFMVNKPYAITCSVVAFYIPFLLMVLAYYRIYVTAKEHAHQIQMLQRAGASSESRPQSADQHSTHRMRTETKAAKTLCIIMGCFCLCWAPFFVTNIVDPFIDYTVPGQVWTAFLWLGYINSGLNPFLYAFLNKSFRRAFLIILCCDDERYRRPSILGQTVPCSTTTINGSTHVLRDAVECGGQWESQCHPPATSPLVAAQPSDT
Assay: Displacement of [3H]GR113808 from human 5-HT4 receptor at 10 uM incubated for 90 mins under dark condition by microbeta scintillation counting method relative to control
Conditions: not given

Row | SMILES | inhibition
8 | O[C@@H]1[C@H](O)[C@@H]2C[C@@H]2[C@H]1n1cnc2c(NCc3cccc(Cl)c3)nc(Cl)nc21 | < 50%

Target: T1, 5-hydroxytryptamine receptor 2A
Assay: Displacement of [3H]ketanserin from human 5-HT2A receptor expressed in HEK-T cell membranes at 10 uM incubated for 90 mins under dark condition by microbeta scintillation counting method relative to control
Conditions: not given

Row | SMILES | inhibition
9 | O[C@@H]1[C@H](O)[C@@H]2C[C@@H]2[C@H]1n1cnc2c(NCc3cccc(Cl)c3)nc(Cl)nc21 | < 10%

Target: T3, 5-hydroxytryptamine receptor 1A (Homo sapiens) (UniProt P08908)
T3 sequence (whole entry): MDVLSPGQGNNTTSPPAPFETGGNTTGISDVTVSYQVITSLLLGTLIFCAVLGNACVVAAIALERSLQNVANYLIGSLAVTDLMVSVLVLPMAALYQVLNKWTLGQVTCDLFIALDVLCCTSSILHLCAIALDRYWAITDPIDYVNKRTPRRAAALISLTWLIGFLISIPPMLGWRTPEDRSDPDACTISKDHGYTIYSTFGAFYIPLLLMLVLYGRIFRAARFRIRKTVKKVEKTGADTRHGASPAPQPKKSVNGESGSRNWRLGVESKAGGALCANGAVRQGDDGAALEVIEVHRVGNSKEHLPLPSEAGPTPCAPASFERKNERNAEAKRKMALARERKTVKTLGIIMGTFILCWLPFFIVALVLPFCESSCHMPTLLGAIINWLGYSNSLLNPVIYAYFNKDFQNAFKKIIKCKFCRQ
Assay: Displacement of [3H]WAY100635 from human 5-HT1AR expressed in CHO cell membranes at 10 uM incubated for 90 mins under dark condition by microbeta scintillation counting method relative to control
Conditions: not given

Row | SMILES | inhibition
10 | O[C@@H]1[C@H](O)[C@@H]2C[C@@H]2[C@H]1n1cnc2c(NCc3cccc(Cl)c3)nc(Cl)nc21 | < 50%

Target: 5-hydroxytryptamine receptor 3A (Homo sapiens, UniProt P46098)
Sequence (P46098 whole entry): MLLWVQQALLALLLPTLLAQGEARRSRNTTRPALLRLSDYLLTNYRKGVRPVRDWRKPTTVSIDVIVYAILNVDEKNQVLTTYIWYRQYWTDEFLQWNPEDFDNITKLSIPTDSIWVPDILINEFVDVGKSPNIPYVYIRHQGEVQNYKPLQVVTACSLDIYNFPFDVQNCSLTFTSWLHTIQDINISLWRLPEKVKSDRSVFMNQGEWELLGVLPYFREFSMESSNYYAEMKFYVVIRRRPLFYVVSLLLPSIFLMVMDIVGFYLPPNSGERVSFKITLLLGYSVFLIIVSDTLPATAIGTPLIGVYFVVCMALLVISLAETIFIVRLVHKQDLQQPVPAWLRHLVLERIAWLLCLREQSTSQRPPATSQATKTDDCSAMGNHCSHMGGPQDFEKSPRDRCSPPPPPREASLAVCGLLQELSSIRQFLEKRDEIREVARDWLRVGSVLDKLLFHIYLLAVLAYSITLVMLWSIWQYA
Assay: Displacement of [3H]GR65630 from human 5-HT3 receptor expressed in HEK-T cell membranes incubated for 90 mins under dark condition by microbeta scintillation counting method
Conditions: not given

Row | SMILES | Ki
11 | O[C@@H]1[C@H](O)[C@@H]2C[C@@H]2[C@H]1n1cnc2c(NCc3cccc(Cl)c3)nc(Cl)nc21 | 3.26 µM

Target: T4, 5-hydroxytryptamine receptor 2C (Homo sapiens, UniProt P28335)
T4 sequence (P28335 whole entry): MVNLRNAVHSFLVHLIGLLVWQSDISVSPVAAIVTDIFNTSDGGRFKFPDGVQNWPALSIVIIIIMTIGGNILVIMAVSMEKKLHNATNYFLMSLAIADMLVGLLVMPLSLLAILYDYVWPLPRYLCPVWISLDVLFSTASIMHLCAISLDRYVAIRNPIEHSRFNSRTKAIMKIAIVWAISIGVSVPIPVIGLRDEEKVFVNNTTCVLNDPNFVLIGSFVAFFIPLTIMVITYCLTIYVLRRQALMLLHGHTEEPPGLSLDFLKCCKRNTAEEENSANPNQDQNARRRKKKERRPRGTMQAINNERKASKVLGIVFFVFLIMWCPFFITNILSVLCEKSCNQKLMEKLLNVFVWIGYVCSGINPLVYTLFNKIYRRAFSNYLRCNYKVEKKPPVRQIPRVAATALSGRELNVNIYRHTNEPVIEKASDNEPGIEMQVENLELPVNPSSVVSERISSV
Assay: Displacement of [3H]mesulergine from human 5-HT2CR expressed in Flp-In HEK cell membranes incubated for 90 mins under dark condition by microbeta scintillation counting method
Set-up: species or system HEK293
Conditions: not given

Row | SMILES | Ki
12 | O[C@@H]1[C@H](O)[C@@H]2C[C@@H]2[C@H]1n1cnc2c(NCc3cccc(Cl)c3)nc(Cl)nc21 | 4.1 µM

Target: 5-hydroxytryptamine receptor 5A (Homo sapiens) (UniProt P47898)
Sequence (P47898 whole entry): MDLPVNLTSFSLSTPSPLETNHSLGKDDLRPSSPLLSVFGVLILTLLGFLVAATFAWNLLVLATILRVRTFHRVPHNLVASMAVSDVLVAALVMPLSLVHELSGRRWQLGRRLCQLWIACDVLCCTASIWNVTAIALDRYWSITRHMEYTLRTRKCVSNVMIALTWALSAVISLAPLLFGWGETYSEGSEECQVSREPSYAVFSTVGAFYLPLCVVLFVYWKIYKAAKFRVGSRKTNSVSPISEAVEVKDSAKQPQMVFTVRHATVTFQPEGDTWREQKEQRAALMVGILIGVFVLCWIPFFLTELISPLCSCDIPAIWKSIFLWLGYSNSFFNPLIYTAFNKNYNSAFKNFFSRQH
Assay: Displacement of [3H]LSD from human 5-HT5A receptor expressed in Flp-In-CHO cell membranes incubated for 90 mins under dark condition by microbeta scintillation counting method relative to control
Set-up: concentration or dose not given beside the values
Conditions: not given

Row | SMILES | inhibition
13 | O[C@@H]1[C@H](O)[C@@H]2C[C@@H]2[C@H]1n1cnc2c(NCc3cccc(Cl)c3)nc(Cl)nc21 | < 50%

Target: T2, 5-hydroxytryptamine receptor 2B
Assay: not given
Conditions: HEK293, at 10 µM

Row | SMILES | inhibition
14 | O[C@@H]1[C@H](O)[C@@H]2C[C@@H]2[C@H]1n1cnc2c(NCc3cccc(Cl)c3)nc(Cl)nc21 | > 50%

Target: 5-hydroxytryptamine receptor 1E (Homo sapiens) (UniProt P28566)
Sequence (P28566 whole entry): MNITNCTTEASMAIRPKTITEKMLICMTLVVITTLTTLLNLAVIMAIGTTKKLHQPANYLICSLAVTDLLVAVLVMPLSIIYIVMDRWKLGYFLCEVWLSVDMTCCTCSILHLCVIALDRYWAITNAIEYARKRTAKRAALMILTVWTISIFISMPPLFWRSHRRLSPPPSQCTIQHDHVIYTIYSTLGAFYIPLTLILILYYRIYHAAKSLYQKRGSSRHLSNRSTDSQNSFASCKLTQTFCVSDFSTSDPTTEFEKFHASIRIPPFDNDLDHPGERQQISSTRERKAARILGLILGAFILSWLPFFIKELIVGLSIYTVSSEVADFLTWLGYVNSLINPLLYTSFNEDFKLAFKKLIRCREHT
Assay: Displacement of [3H]5-HT from human 5-HT1E receptor expressed in HEK cell membranes at 10 uM incubated for 90 mins under dark condition by microbeta scintillation counting method relative to control
Conditions: HEK293

Row | SMILES | inhibition
15 | O[C@@H]1[C@H](O)[C@@H]2C[C@@H]2[C@H]1n1cnc2c(NCc3cccc(Cl)c3)nc(Cl)nc21 | < 50%

Target: T5, 5-hydroxytryptamine receptor 2C (Homo sapiens) (UniProt P28335)
T5 sequence (whole entry): T4 sequence (P28335 whole entry)
Assay: Displacement of [3H]mesulergine from human 5-HT2CR expressed in Flp-In HEK cell membranes at 10 uM incubated for 90 mins under dark condition by microbeta scintillation counting method relative to control
Conditions: HEK293

Row | SMILES | inhibition
16 | O[C@@H]1[C@H](O)[C@@H]2C[C@@H]2[C@H]1n1cnc2c(NCc3cccc(Cl)c3)nc(Cl)nc21 | > 50%

Target: T6, Adenosine receptor A1 (Homo sapiens, UniProt P30542)
T6 sequence (P30542 whole entry): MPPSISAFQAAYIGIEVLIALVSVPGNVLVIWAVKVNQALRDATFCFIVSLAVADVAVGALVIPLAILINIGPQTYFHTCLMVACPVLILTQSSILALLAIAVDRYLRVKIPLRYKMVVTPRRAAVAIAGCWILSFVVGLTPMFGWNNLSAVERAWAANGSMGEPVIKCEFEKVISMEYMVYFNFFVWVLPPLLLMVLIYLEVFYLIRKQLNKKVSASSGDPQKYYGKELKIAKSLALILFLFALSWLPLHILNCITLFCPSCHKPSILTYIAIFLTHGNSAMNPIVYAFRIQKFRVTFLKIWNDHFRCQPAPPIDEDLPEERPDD
Assay: Displacement of [3H]N6-phenylisopropyladenosine from recombinant human A1AR expressed in CHO cell membranes after 60 mins by liquid scintillation counting method
Conditions: not given

Row | SMILES | Ki
17 | O[C@@H]1[C@H](O)[C@@H]2C[C@@H]2[C@H]1n1cnc2c(NCc3cccc(Cl)c3)nc(Cl)nc21 | 1.6 µM
